Experimental data taken from publication PMC7156458, “Synthetic biology based construction of biological activity-related library of fungal decalin-containing diterpenoid pyrones” (Nature Communications, 2020).

Biological target: Aβ42 (Homo sapiens, UniProt P05067)
Experiment: Th-T (thioflavin-T) assay of Aβ42 aggregation
Assay type: biochemical
Conditions: for Th-T assay plate reading, mean of three wells (Supplementary Fig. 47): source data, Ab alone and No Ab as controls

Sequence of Aβ42 (P05067 672-713): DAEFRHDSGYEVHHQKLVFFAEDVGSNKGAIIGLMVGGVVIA

Compound: C=C1CC[C@H]2[C@]3(C)C[C@@H](C=C(C)C)O[C@H]3CC[C@]2(C)[C@@H]1Cc1c(O)c(C)c(C)oc1=O [Compound 5, subglutinol A]
- Th-T fluorescence, mean of three wells (Aβ42 aggregation time course, reading M117): 2.674
- Th-T fluorescence, mean of three wells (Aβ42 aggregation time course, reading M118): 2.686
- Th-T fluorescence, mean of three wells (Aβ42 aggregation time course, reading M119): 2.671
- Th-T fluorescence, mean of three wells (Aβ42 aggregation time course, reading M120): 2.6965
- Th-T fluorescence, mean of three wells (Aβ42 aggregation time course, reading M121): 2.686
- Th-T fluorescence, mean of three wells (Aβ42 aggregation time course, reading M122): 2.656
- Th-T fluorescence, mean of three wells (Aβ42 aggregation time course, reading M123): 2.683
- Th-T fluorescence, mean of three wells (Aβ42 aggregation time course, reading M124): 2.652
- Th-T fluorescence, mean of three wells (Aβ42 aggregation time course, reading M125): 2.669
- Th-T fluorescence, mean of three wells (Aβ42 aggregation time course, reading M126): 2.668
- Th-T fluorescence, mean of three wells (Aβ42 aggregation time course, reading M127): 2.67
- Th-T fluorescence, mean of three wells (Aβ42 aggregation time course, reading M128): 2.643
- Th-T fluorescence, mean of three wells (Aβ42 aggregation time course, reading M129): 2.642
- Th-T fluorescence, mean of three wells (Aβ42 aggregation time course, reading M130): 2.649
- Th-T fluorescence, mean of three wells (Aβ42 aggregation time course, reading M131): 2.67
- Th-T fluorescence, mean of three wells (Aβ42 aggregation time course, reading M132): 2.65
- Th-T fluorescence, mean of three wells (Aβ42 aggregation time course, reading M133): 2.648
- Th-T fluorescence, mean of three wells (Aβ42 aggregation time course, reading M134): 2.64
- Th-T fluorescence, mean of three wells (Aβ42 aggregation time course, reading M135): 2.652
- Th-T fluorescence, mean of three wells (Aβ42 aggregation time course, reading M136): 2.674
- Th-T fluorescence, mean of three wells (Supplementary Fig. 47, reading M137): 2.698
- Th-T fluorescence, mean of three wells (Supplementary Fig. 47, reading M138): 2.649
- Th-T fluorescence, mean of three wells (Supplementary Fig. 47, reading M139): 2.636
- Th-T fluorescence, mean of three wells (Supplementary Fig. 47, reading M140): 2.665
- Th-T fluorescence, mean of three wells (Supplementary Fig. 47, reading M141): 2.631
- Th-T fluorescence, mean of three wells (Supplementary Fig. 47, reading M142): 2.63
- Th-T fluorescence, mean of three wells (Supplementary Fig. 47, reading M143): 2.626
- Th-T fluorescence, mean of three wells (Supplementary Fig. 47, reading M144): 2.617
- Th-T fluorescence, mean of three wells (Supplementary Fig. 47, reading M145): 2.644
- Th-T fluorescence, mean of three wells (Supplementary Fig. 47 source data, measurement M37 of time course): 2.596
- Th-T fluorescence, mean of three wells (Supplementary Fig. 47 source data, measurement M38 of time course): 2.604
- Th-T fluorescence, mean of three wells (Supplementary Fig. 47 source data, measurement M39 of time course): 2.6132
- Th-T fluorescence, mean of three wells (Supplementary Fig. 47 source data, measurement M40 of time course): 2.619
- Th-T fluorescence, mean of three wells (Supplementary Fig. 47 source data, measurement M41 of time course): 2.62
- Th-T fluorescence, mean of three wells (Supplementary Fig. 47 source data, measurement M42 of time course): 2.62
- Th-T fluorescence, mean of three wells (Supplementary Fig. 47 source data, measurement M43 of time course): 2.6737
- Th-T fluorescence, mean of three wells (Supplementary Fig. 47 source data, measurement M44 of time course): 2.6589
- Th-T fluorescence, mean of three wells (Supplementary Fig. 47 source data, measurement M45 of time course): 2.678
- Th-T fluorescence, mean of three wells (Supplementary Fig. 47 source data, measurement M46 of time course): 2.668
- Th-T fluorescence, mean of three wells (Supplementary Fig. 47 source data, measurement M47 of time course): 2.664
- Th-T fluorescence, mean of three wells (Supplementary Fig. 47 source data, measurement M48 of time course): 2.673
- Th-T fluorescence, mean of three wells (Supplementary Fig. 47 source data, measurement M49 of time course): 2.687
- Th-T fluorescence, mean of three wells (Supplementary Fig. 47 source data, measurement M50 of time course): 2.7097
- Th-T fluorescence, mean of three wells (Supplementary Fig. 47 source data, measurement M51 of time course): 2.667
- Th-T fluorescence, mean of three wells (Supplementary Fig. 47 source data, measurement M52 of time course): 2.696
- Th-T fluorescence, mean of three wells (Supplementary Fig. 47 source data, measurement M53 of time course): 2.692
- Th-T fluorescence, mean of three wells (Supplementary Fig. 47 source data, measurement M54 of time course): 2.717
- Th-T fluorescence, mean of three wells (Supplementary Fig. 47 source data, measurement M55 of time course): 2.693
- Th-T fluorescence, mean of three wells (Supplementary Fig. 47 source data, measurement M56 of time course): 2.698
- Th-T assay plate reading, mean of three wells (Supplementary Fig. 47) (measurement M1): 0.28
- Th-T assay plate reading, mean of three wells (Supplementary Fig. 47) (measurement M2): 0.2885
- Th-T assay plate reading, mean of three wells (Supplementary Fig. 47) (measurement M3): 0.3145
- Th-T assay plate reading, mean of three wells (Supplementary Fig. 47) (measurement M4): 0.3563
- Th-T assay plate reading, mean of three wells (Supplementary Fig. 47) (measurement M5): 0.4309
- Th-T assay plate reading, mean of three wells (Supplementary Fig. 47) (measurement M6): 0.5173
- Th-T assay plate reading, mean of three wells (Supplementary Fig. 47) (measurement M7): 0.5869
- Th-T assay plate reading, mean of three wells (Supplementary Fig. 47) (measurement M8): 0.6432
- Th-T assay plate reading, mean of three wells (Supplementary Fig. 47) (measurement M9): 0.6839
- Th-T assay plate reading, mean of three wells (Supplementary Fig. 47) (measurement M10): 0.7213
- Th-T assay plate reading, mean of three wells (Supplementary Fig. 47) (measurement M11): 0.7671
- Th-T assay plate reading, mean of three wells (Supplementary Fig. 47) (measurement M12): 0.8255
- Th-T assay plate reading, mean of three wells (Supplementary Fig. 47) (measurement M13): 0.9138
- Th-T assay plate reading, mean of three wells (Supplementary Fig. 47) (measurement M14): 1.049
- Th-T assay plate reading, mean of three wells (Supplementary Fig. 47) (measurement M15): 1.273
- Th-T assay plate reading, mean of three wells (Supplementary Fig. 47) (measurement M16): 1.57
- Th-T fluorescence, mean of three wells (reading M17, Supplementary Fig. 47 source data): 1.838
- Th-T fluorescence, mean of three wells (reading M18, Supplementary Fig. 47 source data): 2.054
- Th-T fluorescence, mean of three wells (reading M19, Supplementary Fig. 47 source data): 2.206
- Th-T fluorescence, mean of three wells (reading M20, Supplementary Fig. 47 source data): 2.312
- Th-T fluorescence, mean of three wells (reading M21, Supplementary Fig. 47 source data): 2.3414
- Th-T fluorescence, mean of three wells (reading M22, Supplementary Fig. 47 source data): 2.381
- Th-T fluorescence, mean of three wells (reading M23, Supplementary Fig. 47 source data): 2.384
- Th-T fluorescence, mean of three wells (reading M24, Supplementary Fig. 47 source data): 2.421
- Th-T fluorescence, mean of three wells (reading M25, Supplementary Fig. 47 source data): 2.421
- Th-T fluorescence, mean of three wells (reading M26, Supplementary Fig. 47 source data): 2.4278
- Th-T fluorescence, mean of three wells (reading M27, Supplementary Fig. 47 source data): 2.452
- Th-T fluorescence, mean of three wells (reading M28, Supplementary Fig. 47 source data): 2.461
- Th-T fluorescence, mean of three wells (reading M29, Supplementary Fig. 47 source data): 2.478
- Th-T fluorescence, mean of three wells (reading M30, Supplementary Fig. 47 source data): 2.514
- Th-T fluorescence, mean of three wells (reading M31, Supplementary Fig. 47 source data): 2.5151
- Th-T fluorescence, mean of three wells (reading M32, Supplementary Fig. 47 source data): 2.555
- Th-T fluorescence, mean of three wells (reading M33, Supplementary Fig. 47 source data): 2.5475
- Th-T fluorescence, mean of three wells (reading M34, Supplementary Fig. 47 source data): 2.566
- Th-T fluorescence, mean of three wells (reading M35, Supplementary Fig. 47 source data): 2.566
- Th-T fluorescence, mean of three wells (reading M36, Supplementary Fig. 47 source data): 2.598
- Th-T fluorescence, mean of three wells (time course, reading M57): 2.692
- Th-T fluorescence, mean of three wells (time course, reading M58): 2.694
- Th-T fluorescence, mean of three wells (time course, reading M59): 2.7314
- Th-T fluorescence, mean of three wells (time course, reading M60): 2.723
- Th-T fluorescence, mean of three wells (time course, reading M61): 2.703
- Th-T fluorescence, mean of three wells (time course, reading M62): 2.708
- Th-T fluorescence, mean of three wells (time course, reading M63): 2.7
- Th-T fluorescence, mean of three wells (time course, reading M64): 2.715
- Th-T fluorescence, mean of three wells (time course, reading M65): 2.696
- Th-T fluorescence, mean of three wells (time course, reading M66): 2.7072
- Th-T fluorescence, mean of three wells (time course, reading M67): 2.703
- Th-T fluorescence, mean of three wells (time-course reading M97, Supplementary Fig. 47 source data): 2.693
- Th-T fluorescence, mean of three wells (time-course reading M98, Supplementary Fig. 47 source data): 2.706
- Th-T fluorescence, mean of three wells (time-course reading M99, Supplementary Fig. 47 source data): 2.707
- Th-T fluorescence, mean of three wells (time-course reading M100, Supplementary Fig. 47 source data): 2.682
- Th-T fluorescence, mean of three wells (time-course reading M101, Supplementary Fig. 47 source data): 2.67
- Th-T fluorescence, mean of three wells (time-course reading M102, Supplementary Fig. 47 source data): 2.671
- Th-T fluorescence, mean of three wells (time-course reading M103, Supplementary Fig. 47 source data): 2.705
- Th-T fluorescence, mean of three wells (time-course reading M104, Supplementary Fig. 47 source data): 2.674
- Th-T fluorescence, mean of three wells (time-course reading M105, Supplementary Fig. 47 source data): 2.704
- Th-T fluorescence, mean of three wells (time-course reading M106, Supplementary Fig. 47 source data): 2.676
- Th-T fluorescence, mean of three wells (time-course reading M107, Supplementary Fig. 47 source data): 2.6621
- Th-T fluorescence, mean of three wells (time-course reading M108, Supplementary Fig. 47 source data): 2.675
- Th-T fluorescence, mean of three wells (time-course reading M109, Supplementary Fig. 47 source data): 2.6837
- Th-T fluorescence, mean of three wells (time-course reading M110, Supplementary Fig. 47 source data): 2.682
- Th-T fluorescence, mean of three wells (time-course reading M111, Supplementary Fig. 47 source data): 2.679
- Th-T fluorescence, mean of three wells (time-course reading M112, Supplementary Fig. 47 source data): 2.691
- Th-T fluorescence, mean of three wells (time-course reading M113, Supplementary Fig. 47 source data): 2.675
- Th-T fluorescence, mean of three wells (time-course reading M114, Supplementary Fig. 47 source data): 2.674
- Th-T fluorescence, mean of three wells (time-course reading M115, Supplementary Fig. 47 source data): 2.688
- Th-T fluorescence, mean of three wells (time-course reading M116, Supplementary Fig. 47 source data): 2.67
